# Assay results reported in patent US6615842B1, “Methods for removing nucleophilic toxins from tobacco smoke” (Cerami Consulting Corp., priority 1998, dated 2003).
# Assay: Removal of tar from tobacco smoke measured colorimetrically
# Conditions: 250 mg portions of compound as filter; smoke from one cigarette drawn through 3 ml water; read at 405 nm; compared with control cigarette
# Protocol: The smoke from one cigarette was drawn through the filter material and then through 3 mls of distilled water using a water-pipe smoking device which was constructed from a 25 ml glass Erlenmeyer flask attached to a vacuum source with an air flow rate of approximately 35 ml/min. Three 100 microliter aliquots were removed from each flask, placed into ELISA plate wells and read in an ELISA plate reader at 405 nm. The percentage or tar removed is based on a comparison between the cigarette comprising the filter containing the test agent and an appropriate control cigarette.
# The smoke from 1 of each type of filter cigarette was then drawn through 3 mls of distilled water using a water-pipe smoking device which was constructed from a small (25 ml) glass Erlenmeyer flask attached to a vacuum source with an air flow rate of approximately 35 ml/min. Three 100 microliter aliquots were removed from each flask, placed into ELISA plated wells and read in an ELISA plate reader at 405 nm.
row,Structure (SMILES),% TAR REMOVAL [%]
1,CCCCCCCCCC=CCC1CC(=O)OC1=O (stereo not drawn) [2-Dodecen-1-ylsuccinic anhydride],98.2
2,O=C1c2ccccc2C(=O)C1(O)C1(O)C(=O)c2ccccc2C1=O [Hydrindantin],95
3,"CC1(C)CC(=O)CC(=O)C1 [(5,5-dimethyl-1,3-cyclohexanedione, 5,5-dimethyl-1,3-cyclohexanedione]",26
4,"O=C1OC(=O)C2C3C=CC(C12)C1C(=O)OC(=O)C31 (stereo not drawn) [Bicyclo(2,2,2)oct-7-ene-2,3,5,6-tetracarboxylic dianhydride]",98.2
5,O=C1CN(CCN2CC(=O)OC(=O)C2)CC(=O)O1 [Ethylenediaminetetraacetic dianhydride],98.2
6,CC(C)(C)OC(=O)NCCCCCC(=O)ON1C(=O)CCC1=O [BOC-ε-aminocaproic acid-N-hydroxysuccinimide ester],74
7,CC(=O)O[C@H]1C(=O)OC(=O)[C@@H]1OC(C)=O [(+)-Diacetyl-1-tartaric anhydride],32.1
8,O=Cc1ccccc1C=O [O-phthaldialdehyde],84
9,O=CC(=O)c1ccccc1 [Phenylglyoxal],53
10,C[C@H](NC(=O)OC(C)(C)C)C(=O)ON1C(=O)CCC1=O [N-α-t-BOC-L-alanine-N-hydroxysuccinimide ester],25
11,O=C1c2ccccc2C(=O)C1(O)O [Ninhydrin],83
12,CC(C)(C)OC(=O)N[C@@H](CCC(=O)ON1C(=O)CCC1=O)C(=O)OCc1ccccc1 [N-α-t-BOC-L-glutamic-α-benzyl ester-γ-N-hydroxysuccinimide ester],96.7
